Data taken from patent US6759212B1, “Cell cycle-regulating proteins” (Chugai Seiyaku Kabushiki Kaisha, priority 1997, dated 2004).

Columns and labels:
[1] = tested on: human diploid fibroblast KD cells; assay: Abnormal cytokinesis: cells having two or more nuclei after transient transfection; format: cell-based; conditions: 72 hours after transfection
Source text: (§1) To confirm the generality of this observation, AIM-1 (WT) and AIM-1 (K-R) plasmids were transiently expressed in NRK-49F cells and human diploid fibroblast KD cells and the results were compared with those obtained in a control transfected with vector alone. These constructs were transfected into cell-s with a reporter construct […] to prepare β-galactosidase-expressing plasmids for use as a positive internal control for transfection (Table 1).
(§2) (2) Abnormal Cytokinesis in Cells Expressing AIM-1 (K-R) Plasmid FLAG-AIM-1 (WT), FLAG-AIM-1 (K-R) or a control plasmid pEF/hygI was cotransfected with a reporter construct RSV-β-galactosidase at a ratio of 10:1 into NRK-49F cells and human diploid fibroblast KD cells (a kind gift of late Dr. Takeo Kakunaga) by Lipofectin method. After 24 hours, 1×10^3 cells were seeded per 60 mm dish, and 72 hours after transfection, cells were fixed in 1.25% glutaraldehyde/PBS and stained by a method described in literature (Shu et al., J.C.S. 108:2955-62, 1995) to observe expression of β-galactosidase. MvlLu cells were also tested under the conditions described in (1) B above.
(§3) 1. The figures in the table mean the percentage of cells having two or more nuclei to β-galactosidase positive cells for NRK-49F cells and KD cells or the percentage of cells having two or more nuclei to the total number of cells for MvlLu cells. […]

NRK-49F cells = assay: as above; format: cell-based, rat; conditions: 72 hours after transfection
Source text: as §1, §2, §3

Mv1Lu cells [2] = assay: Growth for 2 weeks with or without DOX, Giemsa staining; format: cell-based, mink; conditions: grown 2 weeks with or without doxycycline
Protocol: The nuclei of these AIM-1 (K-R)-expressing cells divided 3 to 4 times during 4 to 5 days, resulting in more than 10 nuclei per cell (FIG. 5D).
Mv1Lu cells transfected with FLAG-AIM-1 (WT) or FLAG-AIM-1 (K-R) were grown with or without DOX for 2 weeks and stained with Giemsa's solution.

Mv1Lu cells [3] = assay: FACS analysis of DNA content (propidium iodide); format: cell-based, mink; conditions: 72 hour-induction
Protocol: (§4) MvlLu cells carrying vector alone, wild-type FLAG-AIM-1 (WT) or FLAG-AIM-1 (K-R) were grown in the presence or absence of doxycycline (tetracycline analog) for 24 hours and then subjected to western blot with anti-FLAG antibody (FIG. 4A). […] In addition, the size of these cells was much larger than normal cells (FIGS. 4Bf and 5D). In these abnormal cells, however, spindle. functions including chromosome disjunction and late anaphase spindle elongation as well as nuclear division appeared unaffected (data not shown). This was further confirmed by flow cytometry (FACS) (FIG. 4C). […] Namely, apocytes appeared because karyokinesis advances but cytokinesis is inhibited.
Cell samples were harvested and fixed with ethanol, stained with propidium iodide for FACS analysis.

Mv1Lu cells [4] = assay: Abnormal cytokinesis: cells having two or more nuclei, tetracycline-inducible expression, Giemsa staining; format: cell-based, mink; conditions: Mv1Lu, 72 hours
Protocol: as §4
Then, asynchronous cells transfected with vector alone (a, d), FLAG-AIM-1 (WT) (b, e) or FLAG-AIM-1 (K-R) (c, f) were grown with (a-c) or without (d-f) DOX for 72 hours and stained with Giemsa's solution. Results are shown in FIG. 4B, wherein upper panels are called as a, b and c from left to right, and lower panels are called as d, e and f from left to right.
(2) Abnormal Cytokinesis in Cells Expressing AIM-1 (K-R) Plasmid FLAG-AIM-1 (WT), FLAG-AIM-1 (K-R) or a control plasmid pEF/hygI was cotransfected with a reporter construct RSV-β-galactosidase at a ratio of 10:1 into NRK-49F cells and human diploid fibroblast KD cells (a kind gift of late Dr. Takeo Kakunaga) by Lipofectin method. […]

AIM-1 (WT): wild-type rat AIM-1 protein kinase labeled with FLAG at the N-terminus, expressed from plasmid pUHD10-3 or pEF/hygI
percentage of cells having two or more nuclei to β-galactosidase positive cells [1]: 4.8%
percentage of cells having two or more nuclei to β-galactosidase positive cells (NRK-49F cells): 7.8%
effect on growth potency (mitotic inhibition) (Mv1Lu cells [2]): not
cell population with 4N or 8N DNA / cell cycle pattern (FACS) (Mv1Lu cells [3]): normal cell cycle pattern
percentage of cells having two or more nuclei to the total number of cells (Mv1Lu cells [4]; DOX(+) (not induced)): 0.9%
percentage of cells having two or more nuclei to the total number of cells (Mv1Lu cells [4]; DOX(−) (induced)): 2.8%
